Experimental data reported in patent publication US11446287B2, “Compounds and methods for EP300 or CBP modulation and indications therefor” (Opna Immuno-Oncology SA, priority 2019, dated 2022).
pIC50: −log10 of the molar value.

target: T1, Recombinant human BRD4 containing dual bromodomains (BRD4-BD12 (1-477)) (Homo sapiens, UniProt O60885); test: BRD4 Alphascreen binding assay
T1 construct: Recombinant human BRD4 containing dual bromodomains (BRD4-BD12 (1-477)); made in house; host or cells: E. coli BL21-CodonPlus (DE3), modified pET vector
Procedure: BRD4 Alphascreen Binding Assay
Binding of compounds of Formula (I) with BRD4 was assessed using Alphascreen binding assay. The inhibition of the interaction between BRD4 and its acetylated target protein was measured quantitatively using recombinant BRD4 protein, an acetylated Histone 4 peptide, and AlphaScreen™ technology. In absence of inhibition of the BRD4 protein bound to AlphaScreen™ nickel chelate acceptor beads can interact with the acetylated Histone 4 peptide which was immobilized by the AlphaScreen™ Streptavidin coated beads. This interaction brings donor and acceptor beads in proximity. The close proximity allows the singlet oxygen produced by laser excitation of the donor beads to reach the acceptor beads and generate a luminescence signal. BRD4 inhibitors result in a decrease in the proximity signal through an inhibition of the BRD4—acetylated peptide interaction.
Recombinant human BRD4 containing dual bromodomains (BRD4-BD12 (1-477)) was prepared and purified as described in protein expression and purification session. The peptide was human Histone H41-21K5AcK8AcK12AcK16Ac-Biotin (Anaspec CA, USA).
Protocol for BRD4 assay: All components are prepared in buffer composed of 50 mM HEPES pH 7.5, 50 mM NaCl, 0.01% BSA, 0.01% Triton X-100, 2 mM DTT. Test compounds and DMSO vehicle are diluted 1:50 in buffer and a 4 μL volume was transferred to an Alphaplate. 5.5 μL of Bromodomain protein and 5.5 μL of peptide are added to wells containing 4 μL of various concentrations of test compounds of Formula (I) or DMSO vehicle in an Alphaplate (PerkinElmer GA, USA) and incubated for 1 hour at room temperature. 5 μL donor and acceptor bead mixture was then added with final concentrations of 7.5 μg/ml. 30 minutes after bead addition, Alpha signal was read on the Envision spectrometer (λEx 680 nm, λEm 520-620 nm). Final concentrations of bromodomain proteins and peptide are as shown below.
All data were normalized to the mean of 16 high and 16 low control wells on each plate. A four parameter curve fit of the following formula was then applied: Y=A+((B−A)/(1+((C/x)^D))) Where ‘A’ is the minimum, ‘B’ is the maximum, ‘C’ is the IC50 and ‘D’ is the Hill slope. Protein Expression and Purification
Recombinant human BRD4 containing dual bromodomains (BRD4-BD12 (1-477)) was expressed in E. coli cells (in a modified pET vector) with an N-terminal six-His tag and purified using a combination of both IMAC (Ni-affinity) and size exclusion chromatography steps.
Recombinant BRD4 was expressed using the E. coli strain BL21-CodonPlus (DE3) (Agilent Technologies CA, USA). Cells were grown in Terrific Broth (TB) media to an OD600 of 2.0 at 37° C. at which temperature was reduced to 18° C., protein was induced with 0.1 mM isopropyl-β-D-thiogalactopyranoside (“IPTG”) for 12-18 hours and harvested by centrifugation at 8000×g for 20 minutes. Cells were re-suspended in 40 mM Tris-HCl pH 8.0, 0.5 M NaCl, 25 mM Imidazole, 5% glycerol, 1/200 vol. Protease Inhibitor Cocktail Set III (Calbiochem), 5 mM beta-mercaptoethanol (“BME”), 0.5 mg/mL Lysozyme, and 0.5 mg/mL DNaseI, incubated on ice for 30 minutes and lysed with a cell disruptor (MicroFluidics MA, USA). The lysate was clarified by centrifugation at 20,000×g for 2 hours. The protein was captured with Ni-NTA resin (Life Technologies, USA). Contaminating proteins were washed off with 40 mM Tris-HCl pH 8.0, 0.5 M NaCl, 25 mM Imidazole, 5% glycerol, and 5 mM BME. Following 3× wash steps, protein was eluted step wise into wash buffer containing 50, 100, 150, 500 mM Imidazole. The protein was further purified using Gel Filtration column 16/60 Superdex 200 (GE Biosciences NJ, USA) in 10 mM HEPES pH 8.0, 150 mM NaCl, and 5 mM DTT. Glycerol was added to a final concentration of 12% and the protein was aliquoted and flash-frozen in liquid Nitrogen.

First: Cc1noc(C)c1-c1cnc2c(c1)c(-c1ccc(C(=O)O)cc1OCC(F)(F)F)cn2[C@@H](C)c1ccccn1 [P-0115, (S)-4-(5-(3,5-dimethylisoxazol-4-yl)-1-(1-(pyridin-2-yl)ethyl)-1H-pyrrolo[2,3-b]pyridin-3-yl)-3-(2,2,2-trifluoroethoxy)benzoic acid]
Second: Cc1noc(C)c1-c1cnc2c(c1)c(-c1ccc(C(=O)O)cc1C(F)(F)F)cn2[C@@H](C)c1ccccn1 [P-0116, (S)-4-(5-(3,5-dimethylisoxazol-4-yl)-1-(1-(pyridin-2-yl)ethyl)-1H-pyrrolo[2,3-b]pyridin-3-yl)-3-(trifluoromethyl)benzoic acid]
The pIC50 of the first is lower: 3.00 to 5.10 for the first, 5.10 to 6.00 for the second. The second is the more potent here.

First: CCCOc1cc(C(=O)O)cc(OCCC)c1-c1cn([C@@H](C)c2ccccn2)c2ncc(-c3c(C)noc3C)cc12 [P-0117, (S)-4-(5-(3,5-dimethylisoxazol-4-yl)-1-(1-(pyridin-2-yl)ethyl)-1H-pyrrolo[2,3-b]pyridin-3-yl)-3,5-dipropoxybenzoic acid]
Second: Cc1noc(C)c1-c1cnc2c(c1)c(-c1c(OC(C)C)cc(C(=O)O)cc1OC(C)C)cn2[C@@H](C)c1ccccn1 [P-0118, (S)-4-(5-(3,5-dimethylisoxazol-4-yl)-1-(1-(pyridin-2-yl)ethyl)-1H-pyrrolo[2,3-b]pyridin-3-yl)-3,5-diisopropoxybenzoic acid]
The pIC50 of the first is higher: 5.10 to 6.00 for the first, 3.00 to 5.10 for the second. The first is the more potent here.

Compared with `COc1cc(C(=O)O)cc(OC)c1-c1cn(C(C)c2ccccc2)c2cc(-c3c(C)noc3C)cnc12` (stereo not drawn) [P-0119, 4-(6-(3,5-dimethylisoxazol-4-yl)-1-(1-phenylethyl)-1H-pyrrolo[3,2-b]pyridin-3-yl)-3,5-dimethoxybenzoic acid], `COc1c(C(=O)O)cccc1-c1cn(C(C)c2ccccc2)c2cc(-c3c(C)noc3C)cnc12` (stereo not drawn) [P-0136, 3-(6-(3,5-dimethylisoxazol-4-yl)-1-(1-phenylethyl)-1H-pyrrolo[3,2-b]pyridin-3-yl)-2-methoxybenzoic acid] is higher in pIC50: 5.10 to 6.00 for the first, 6.00 to 10.00 for the second.

Compared with `Cc1noc(C)c1-c1cnc2c(-c3ccccc3C(=O)O)cn(C(C)c3ccccc3)c2c1` (stereo not drawn) [P-0120, 2-(6-(3,5-dimethylisoxazol-4-yl)-1-(1-phenylethyl)-1H-pyrrolo[3,2-b]pyridin-3-yl)benzoic acid], `Cc1noc(C)c1-c1cnc2c(c1)c(-c1cccc(C(=O)O)n1)cn2C(C)c1ccccn1` (stereo not drawn) [P-0122, 6-(5-(3,5-dimethylisoxazol-4-yl)-1-(1-(pyridin-2-yl)ethyl)-1H-pyrrolo[2,3-b]pyridin-3-yl)picolinic acid] is lower in pIC50: 5.10 to 6.00 for the first, 3.00 to 5.10 for the second. The first is the more potent here.

`Cc1noc(C)c1-c1cnc2c(C(=O)C3CCC3)cn(-c3c(Cl)cc(C(=O)O)cc3Cl)c2c1` [P-0121, 3,5-dichloro-4-(3-(cyclobutanecarbonyl)-6-(3,5-dimethylisoxazol-4-yl)-1H-pyrrolo[3,2-b]pyridin-1-yl)benzoic acid] and `Cc1noc(C)c1-c1cnc2c(C(=O)c3cccc(OC(F)F)c3)cn(-c3c(Cl)cc(C(=O)O)cc3Cl)c2c1` [P-0129, 3,5-dichloro-4-(3-(3-(difluoromethoxy)benzoyl)-6-(3,5-dimethylisoxazol-4-yl)-1H-pyrrolo[3,2-b]pyridin-1-yl)benzoic acid] fall in the same range of pIC50: 5.10 to 6.00 for the first, 5.10 to 6.00 for the second.

`Cc1noc(C)c1-c1cnc2c(c1)c(-c1ccc(C(=O)O)cn1)cn2C(C)c1ccccn1` (stereo not drawn) [P-0123, 6-(5-(3,5-dimethylisoxazol-4-yl)-1-(1-(pyridin-2-yl)ethyl)-1H-pyrrolo[2,3-b]pyridin-3-yl)nicotinic acid] and `Cc1noc(C)c1-c1cnc2c(c1)c(-c1cc(C(=O)O)ccn1)cn2C(C)c1ccccn1` (stereo not drawn) [P-0124, 2-(5-(3,5-dimethylisoxazol-4-yl)-1-(1-(pyridin-2-yl)ethyl)-1H-pyrrolo[2,3-b]pyridin-3-yl)isonicotinic acid] fall in the same range of pIC50: 3.00 to 5.10 for the first, 3.00 to 5.10 for the second.

`Cc1noc(C)c1-c1cnc2c(c1)c(-c1ccc(F)c(C(=O)O)c1F)cn2[C@@H](C)c1ccccn1` [P-0125, (S)-3-(5-(3,5-dimethylisoxazol-4-yl)-1-(1-(pyridin-2-yl)ethyl)-1H-pyrrolo[2,3-b]pyridin-3-yl)-2,6-difluorobenzoic acid] and `Cc1noc(C)c1-c1cnc2c(c1)c(-c1ccnc(C(=O)O)n1)cn2C(C)c1ccccn1` (stereo not drawn) [P-0126, 4-(5-(3,5-dimethylisoxazol-4-yl)-1-(1-(pyridin-2-yl)ethyl)-1H-pyrrolo[2,3-b]pyridin-3-yl)pyrimidine-2-carboxylic acid] fall in the same range of pIC50: 3.00 to 5.10 for the first, 3.00 to 5.10 for the second.

`CCCOc1cc(C(=O)O)cc(OCCC)c1-n1cc(CC2CCC2)c2ncc(-c3c(C)noc3C)cc21` [P-0127, 4-(3-(cyclobutylmethyl)-6-(3,5-dimethylisoxazol-4-yl)-1H-pyrrolo[3,2-b]pyridin-1-yl)-3,5-dipropoxybenzoic acid] and `COc1ccc(-n2cc(CC3CCC3)c3ncc(-c4c(C)noc4C)cc32)cn1` [P-0134, 4-(3-(cyclobutylmethyl)-1-(6-methoxypyridin-3-yl)-1H-pyrrolo[3,2-b]pyridin-6-yl)-3,5-dimethylisoxazole] fall in the same range of pIC50: 3.00 to 5.10 for the first, 3.00 to 5.10 for the second.

`Cc1noc(C)c1-c1cnc2c(Cc3cccc(Cl)c3)cn(-c3c(Cl)cc(C(=O)O)cc3Cl)c2c1` [P-0128, 3,5-dichloro-4-(3-(3-chlorobenzyl)-6-(3,5-dimethylisoxazol-4-yl)-1H-pyrrolo[3,2-b]pyridin-1-yl)benzoic acid] and `Cc1noc(C)c1-c1cnc2c(Cc3ccccc3Cl)cn(-c3c(Cl)cc(C(=O)O)cc3Cl)c2c1` [P-0131, 3,5-dichloro-4-(3-(2-chlorobenzyl)-6-(3,5-dimethylisoxazol-4-yl)-1H-pyrrolo[3,2-b]pyridin-1-yl)benzoic acid] fall in the same range of pIC50: 5.10 to 6.00 for the first, 5.10 to 6.00 for the second.

`Cc1noc(C)c1-c1cnc2c(CC3CCC3)cn(-c3ccc([N+](=O)[O-])cc3F)c2c1` [P-0130, 4-(3-(cyclobutylmethyl)-1-(2-fluoro-4-nitrophenyl)-1H-pyrrolo[3,2-b]pyridin-6-yl)-3,5-dimethylisoxazole] and `Cc1noc(C)c1-c1cnc2c(c1)c(-c1ccc(C(=O)O)cc1OCC1CC1)cn2[C@@H](C)c1ccccn1` [P-0138, (S)-3-(cyclopropylmethoxy)-4-(5-(3,5-dimethylisoxazol-4-yl)-1-(1-(pyridin-2-yl)ethyl)-1H-pyrrolo[2,3-b]pyridin-3-yl)benzoic acid] fall in the same range of pIC50: 3.00 to 5.10 for the first, 3.00 to 5.10 for the second.

First: Cc1noc(C)c1-c1cnc2c(Cc3cccc(OCc4ccccc4)c3)cn(-c3c(Cl)cc(C(=O)O)cc3Cl)c2c1 [P-0132, 4-(3-(3-(benzyloxy)benzyl)-6-(3,5-dimethylisoxazol-4-yl)-1H-pyrrolo[3,2-b]pyridin-1-yl)-3,5-dichlorobenzoic acid]
Second: Cc1noc(C)c1-c1cnc2c(C(=O)c3cccc(OCc4ccccc4)c3)cn(-c3c(Cl)cc(C(=O)O)cc3Cl)c2c1 [P-0133, 4-(3-(3-(benzyloxy)benzoyl)-6-(3,5-dimethylisoxazol-4-yl)-1H-pyrrolo[3,2-b]pyridin-1-yl)-3,5-dichlorobenzoic acid]
The pIC50 of the first is lower: 3.00 to 5.10 for the first, 5.10 to 6.00 for the second. The second is the more potent here.

`COc1cc(C(=O)O)cc(OCc2ccccc2)c1-c1cn([C@@H](C)c2ccccn2)c2ncc(-c3c(C)noc3C)cc12` [P-0135, (S)-3-(benzyloxy)-4-(5-(3,5-dimethylisoxazol-4-yl)-1-(1-(pyridin-2-yl)ethyl)-1H-pyrrolo[2,3-b]pyridin-3-yl)-5-methoxybenzoic acid] and `Cc1noc(C)c1-c1cnc2c(c1)c(-c1ccc(C(=O)O)cc1OC1COC1)cn2[C@@H](C)c1ccccn1` [P-0137, (S)-4-(5-(3,5-dimethylisoxazol-4-yl)-1-(1-(pyridin-2-yl)ethyl)-1H-pyrrolo[2,3-b]pyridin-3-yl)-3-(oxetan-3-yloxy)benzoic acid] fall in the same range of pIC50: 3.00 to 5.10 for the first, 3.00 to 5.10 for the second.
